Measured values as given in patent publication US12264156B2, “Compounds and pharmaceutical compositions thereof for the treatment of diseases” (GALAPAGOS NV, priority 2018, dated 2025).

Experiments:
SIK3 = biological target: T1, SIK3 (Homo sapiens, UniProt Q9Y2K2); test: ADP-Glo kinase assay, SIK3; format: biochemical; details: ADP-Glo SIK kinase assay
T1 construct: purchased SignalChem S12-11G-100
Procedure, shortened: (§1)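 Wells with 1% DMSO or 10 μM staurosporine (final) define the control window. The kinase reaction with substrate and ATP runs 120 min at RT, followed by ADP-Glo detection: ATP depletion (40 min) and ADP-derived luminescence (30 min).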

SIK2 = biological target: T2, SIK2 (Homo sapiens, UniProt Q9H0K1); test: ADP-Glo kinase assay, SIK2; format: biochemical; details: ADP-Glo SIK kinase assay
T2 construct: purchased ThermoFisher Scientific PV4792
T2 sequence (Q9H0K1 whole entry): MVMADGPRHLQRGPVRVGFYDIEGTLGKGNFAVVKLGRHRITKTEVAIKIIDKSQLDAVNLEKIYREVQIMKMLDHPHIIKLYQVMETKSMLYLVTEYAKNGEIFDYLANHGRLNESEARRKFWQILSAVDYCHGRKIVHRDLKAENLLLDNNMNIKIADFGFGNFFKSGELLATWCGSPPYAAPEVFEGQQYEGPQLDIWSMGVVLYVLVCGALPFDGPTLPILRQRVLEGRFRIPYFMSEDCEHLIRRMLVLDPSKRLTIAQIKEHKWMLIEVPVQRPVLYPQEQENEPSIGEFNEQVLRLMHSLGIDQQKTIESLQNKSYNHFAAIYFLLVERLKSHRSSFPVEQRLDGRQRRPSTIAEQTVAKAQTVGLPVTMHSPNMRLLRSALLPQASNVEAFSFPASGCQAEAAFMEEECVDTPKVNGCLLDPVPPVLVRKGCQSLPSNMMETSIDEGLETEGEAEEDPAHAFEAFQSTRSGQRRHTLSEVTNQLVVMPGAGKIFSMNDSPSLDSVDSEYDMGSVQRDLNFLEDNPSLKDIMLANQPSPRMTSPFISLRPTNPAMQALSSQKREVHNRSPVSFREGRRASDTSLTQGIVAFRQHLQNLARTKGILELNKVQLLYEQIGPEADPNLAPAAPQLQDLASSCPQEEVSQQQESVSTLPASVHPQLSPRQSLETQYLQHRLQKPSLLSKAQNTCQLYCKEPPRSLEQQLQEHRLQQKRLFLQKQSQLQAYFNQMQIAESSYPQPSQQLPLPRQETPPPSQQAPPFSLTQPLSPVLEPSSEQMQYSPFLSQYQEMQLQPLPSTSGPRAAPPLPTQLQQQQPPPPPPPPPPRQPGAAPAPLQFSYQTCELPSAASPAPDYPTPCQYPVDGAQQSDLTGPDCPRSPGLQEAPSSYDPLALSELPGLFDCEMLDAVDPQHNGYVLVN
Procedure, shortened: as §1

SIK1 = biological target: T3, SIK1 (Homo sapiens, UniProt P57059); test: ADP-Glo kinase assay, SIK1; format: biochemical; details: ADP-Glo SIK kinase assay
T3 construct: purchased Carna Biosciences 02-131
T3 sequence (P57059 whole entry): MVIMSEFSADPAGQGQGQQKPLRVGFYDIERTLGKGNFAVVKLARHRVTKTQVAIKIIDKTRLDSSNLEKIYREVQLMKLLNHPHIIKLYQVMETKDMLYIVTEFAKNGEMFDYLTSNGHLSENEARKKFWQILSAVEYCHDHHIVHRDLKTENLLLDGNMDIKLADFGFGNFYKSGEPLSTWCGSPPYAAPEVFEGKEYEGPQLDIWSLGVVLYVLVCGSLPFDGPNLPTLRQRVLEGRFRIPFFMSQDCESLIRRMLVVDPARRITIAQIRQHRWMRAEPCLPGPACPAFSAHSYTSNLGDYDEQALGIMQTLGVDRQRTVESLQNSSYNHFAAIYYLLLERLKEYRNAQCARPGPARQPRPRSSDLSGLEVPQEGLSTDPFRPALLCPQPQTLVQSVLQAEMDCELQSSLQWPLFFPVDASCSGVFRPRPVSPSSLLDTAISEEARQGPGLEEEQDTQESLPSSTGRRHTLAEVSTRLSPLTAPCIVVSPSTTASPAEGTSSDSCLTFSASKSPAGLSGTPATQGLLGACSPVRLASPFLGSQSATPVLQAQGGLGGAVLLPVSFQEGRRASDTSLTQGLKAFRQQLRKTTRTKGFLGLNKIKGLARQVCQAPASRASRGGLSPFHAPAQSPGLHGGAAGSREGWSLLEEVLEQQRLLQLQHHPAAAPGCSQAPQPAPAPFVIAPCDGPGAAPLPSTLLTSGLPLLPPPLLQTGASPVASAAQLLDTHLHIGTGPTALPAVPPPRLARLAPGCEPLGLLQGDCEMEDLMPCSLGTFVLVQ
Procedure, shortened: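 Enzyme–substrate mix was started with ATP and incubated 120 min at RT. ADP formed was quantified by ADP-Glo: 40 min ATP depletion, then 30 min detection reagent converting ADP to ATP for luciferase luminescence, which rises with kinase activity. Controls: 1% DMSO and 10 μM staurosporine (final).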

[1] = test system: LPS-induced TNFα in monocytes; test: Monocytes assay: LPS-triggered TNFα (ELISA); format: cell-based, human; details: Homo sapiens, Monocyte, 4 h, LPS 200 ng/mL, supernatant after 4 h
Procedure: (§2) SIK inhibition inhibits TNFα and increases IL-10 release in LPS triggered monocyte-derived macrophages (MdM) and dendritic cells (MdDCs) (Clark et al. 2012; Sundberg et al. 2014; Ozanne et al. 2015). This assay evaluates illustrative compounds of the invention for their inhibition of LPS-induced TNFα and LPS triggered IL-10 secretion in monocytes.
(§3) PBMCs are isolated from human blood samples (buffycoats). The buffy coat is aseptically transferred into a 50 mL Falcon tube, and diluted 1/2 in PBS. Falcon tubes are filled with 20 mL Lymphoprep™, on top of which 25 mL of the buffy coat is carefully added, tubes are centrifuged for 35 min at 400 g in temperature controlled centrifuge, without brake, at 25° C. PBMCs are aspirated from the white interface layer between sample and Lymphoprep™. PBMCs are washed five times in PBS. Cells are resuspended in RPMI 1640 complete medium supplemented with 10% FBS, 1% P/S, and cell density is determined using a hematologic analyzer (Sysmex XS-500i).
(§4) PBMCs are centrifuged at 300×g for 10 min and resuspended at a density of 1.0*10^7 cells/80 μL Miltenyi buffer (PBS, pH 7.4, 1% FBS, 2 mM EDTA).
(§5) Starting from this point of the protocol all steps are performed on ice. 20 μL of CD14+ micro-beads are added per 1.0*10^7 cells, the tube is mixed and incubated for 15 min in the fridge at 4° C. Cell suspension volume is adjusted to total volume of 100 mL using Miltenyi buffer, mixed gently and subsequently centrifuged for 10 min at 300×g. Supernantant is discarded and cell pellet is resuspended in 12 mL of Miltenyi buffer.
(§6) Four LS columns are placed in the MACS Separator (magnet) from Miltenyi Biotec, and are prewet by rinsing with 3 mL of MACS buffer per column. Three mL of cell suspension is added onto the column (max 1*10^8 of labelled cells/column), and columns are subsequently washed 3 times with 3 mL of Miltenyi buffer.
(§7) The columns are removed from the magnets, and 5 mL of Miltenyi buffer are added to the column to flush out the CD14+ fraction by pushing the plunger into the column. The flushed fractions are collected in a fresh 50 mL Falcon and volume is adjusted to 30 mL using Miltenyi buffer, cells are centrifuged for 10 min at 300×g. The obtained cell pellet is resuspended in 10 mL RPMI w/o FBS, and cell density is determined using a hematologic analyser (Sysmex XS-500i). 100 000 cells are seeded in 80 μL per well of a 96-well plate in RPMI 1640 medium supplemented with 10% FBS, 1% P/S.
(§8) A compound dilution plate is made in 100% DMSO by 3-fold dilution of 10 mM stock solution. An intermediate dilution plate (10× final concentration) is made by diluting the compound dilution plate 50-fold in RPMI medium.
(§9) 10 μL of the 10× final concentration compound is added to the cells and incubated for 1 h at 37° C. before addition of trigger. No trigger conditions/trigger conditions are spiked with equal final DMSO concentrations of 0.2% DMSO. 10 μL of 10×LPS (final conc. 200 ng/mL) solution are added to all wells except for the ‘no trigger wells’ where 10 μL medium is added. Supernatant is collected after 4 h of LPS triggering.
A Lumitrac 600 Greiner 384-well plate is coated with 40 μL of capture antibody (BD Pharmingen, Cat #551220) reaching a final concentration of 1 μg/mL in 1×PBS and stored overnight at 4° C.
The plate is then washed once with PBST (PBS+0.05% Tween20) and once with PBS followed by the addition of 100 μL of blocking buffer (1% Bovine Serum Albumin (BSA)−5% Sucrose) and plates are sealed and incubated for at least 4 h at RT. After washing the plate once with PBST and once with PBS, […]. Plates are washed twice with PBST, and once with PBS, after which 35 μL of the detection antibody is added (final concentration 0.25 μg/mL diluted in dilution buffer) and plates are incubated for at least 2 h at RT. […]

[2] = test system: LPS triggered IL-10 secretion in monocytes; test: Monocytes assay: LPS-triggered IL-10 (ELISA); format: cell-based, human; details: LPS 200 ng/mL, supernatant after 4 h, maximal fold change vs LPS only
Procedure: as §2, §3, §4, §5, §6, §7, §8, §9
A Lumitrac 600 Greiner 384-well plate is coated with 40 μL of capture antibody (final concentration of 1 μg/mL in 1×PBS) and stored overnight at 4° C. The next day the plate is washed three times with PBST (PBS+0.05% Tween20) and once with PBS followed by the addition of 100 μL of blocking buffer (1% BSA−5% Sucrose) and plates are sealed and incubated for at least 4 h at RT. After washing the plate once with PBST and once with PBS, 40 μL of standard or sample are added (IL-10 standard curve is prepared using a 1/2 serial dilution starting from […]; dilutions are made in dilution buffer (PBS+1% BSA)). Plates are washed twice with PBST, and once with PBS, after which 35 μL of the detection antibody is added (final concentration 0.143 μg/mL diluted in dilution buffer) and plates are incubated for at least 2 h at RT. […]

[3] = test system: LPS-induced TNFα in monocyte-derived macrophages (MdM); test: MdM assay: LPS-triggered TNFα (ELISA); format: cell-based, human; details: Homo sapiens, Macrophage, 20 h, monocyte-derived macrophages, LPS 200 ng/mL, supernatant after 20 h; read-out: TNFα EC50
Procedure: This assay evaluates illustrative compounds of the invention for their inhibition of LPS-induced TNFα and LPS triggered IL-10 secretion in monocyte-derived macrophages.
as §3, with “PBS.” for “PBS. Cells are resuspended in RPMI 1640 complete medium supplemented with 10% FBS, 1% P/S, and cell density is determined using a hematologic analyzer (Sysmex XS-500i).”
as §4, §5, §6
as §7, with “XS-500i).” for “XS-500i). 100 000 cells are seeded in 80 μL per well of a 96-well plate in RPMI 1640 medium supplemented with 10% FBS, 1% P/S.”
On day 10, MdMs are triggered and compound is added.
as §8
Medium is carefully removed from cell plates using multichannel pipette, and replaced by 80 μL fresh medium. 10 μL of the 10× final concentration compound is added to the cells and incubated for 1 hour at 37° C. before addition of trigger. No trigger conditions/trigger conditions are spiked with equal final DMSO concentrations of 0.2% DMSO. 10 μL of 10×LPS (final conc. 200 ng/mL) solution are added to all wells except for the ‘no trigger wells’ where 10 μL medium is added. Supernatant is collected after 2 h (IL-10 determination) and after 20 h (TNFα determination) of LPS triggering.
The plate is then washed once with PBST (PBS+0.05% Tween20) and once with PBS followed by the addition of 100 μL of blocking buffer (1% Bovine Serum Albumin (BSA)−5% Sucrose) and plates are sealed and incubated for at least 4 h at RT. After washing the plate once with PBST and once with PBS, 40 μL of standard or sample are added (TNFα standard curve is prepared using a 1/2 serial dilution starting from […]; dilutions are made in dilution buffer (PBS+1% BSA)). Plates are washed twice with PBST, and once with PBS, after which 35 μL of the detection antibody is added (final concentration 0.25 μg/mL diluted in dilution buffer) and plates are incubated for at least 2 h at RT. Plates are washed twice with PBST, and once with PBS, where after 35 μL of Strep-HRP conjugate (0.5 μg/mL final concentration diluted in dilution buffer) is added. Plates are incubated in the dark, at RT for at least 45 min but no longer than 1 hour. Plates are washed twice with PBST, and once with PBS.

T1 sequence (Q9Y2K2 whole entry): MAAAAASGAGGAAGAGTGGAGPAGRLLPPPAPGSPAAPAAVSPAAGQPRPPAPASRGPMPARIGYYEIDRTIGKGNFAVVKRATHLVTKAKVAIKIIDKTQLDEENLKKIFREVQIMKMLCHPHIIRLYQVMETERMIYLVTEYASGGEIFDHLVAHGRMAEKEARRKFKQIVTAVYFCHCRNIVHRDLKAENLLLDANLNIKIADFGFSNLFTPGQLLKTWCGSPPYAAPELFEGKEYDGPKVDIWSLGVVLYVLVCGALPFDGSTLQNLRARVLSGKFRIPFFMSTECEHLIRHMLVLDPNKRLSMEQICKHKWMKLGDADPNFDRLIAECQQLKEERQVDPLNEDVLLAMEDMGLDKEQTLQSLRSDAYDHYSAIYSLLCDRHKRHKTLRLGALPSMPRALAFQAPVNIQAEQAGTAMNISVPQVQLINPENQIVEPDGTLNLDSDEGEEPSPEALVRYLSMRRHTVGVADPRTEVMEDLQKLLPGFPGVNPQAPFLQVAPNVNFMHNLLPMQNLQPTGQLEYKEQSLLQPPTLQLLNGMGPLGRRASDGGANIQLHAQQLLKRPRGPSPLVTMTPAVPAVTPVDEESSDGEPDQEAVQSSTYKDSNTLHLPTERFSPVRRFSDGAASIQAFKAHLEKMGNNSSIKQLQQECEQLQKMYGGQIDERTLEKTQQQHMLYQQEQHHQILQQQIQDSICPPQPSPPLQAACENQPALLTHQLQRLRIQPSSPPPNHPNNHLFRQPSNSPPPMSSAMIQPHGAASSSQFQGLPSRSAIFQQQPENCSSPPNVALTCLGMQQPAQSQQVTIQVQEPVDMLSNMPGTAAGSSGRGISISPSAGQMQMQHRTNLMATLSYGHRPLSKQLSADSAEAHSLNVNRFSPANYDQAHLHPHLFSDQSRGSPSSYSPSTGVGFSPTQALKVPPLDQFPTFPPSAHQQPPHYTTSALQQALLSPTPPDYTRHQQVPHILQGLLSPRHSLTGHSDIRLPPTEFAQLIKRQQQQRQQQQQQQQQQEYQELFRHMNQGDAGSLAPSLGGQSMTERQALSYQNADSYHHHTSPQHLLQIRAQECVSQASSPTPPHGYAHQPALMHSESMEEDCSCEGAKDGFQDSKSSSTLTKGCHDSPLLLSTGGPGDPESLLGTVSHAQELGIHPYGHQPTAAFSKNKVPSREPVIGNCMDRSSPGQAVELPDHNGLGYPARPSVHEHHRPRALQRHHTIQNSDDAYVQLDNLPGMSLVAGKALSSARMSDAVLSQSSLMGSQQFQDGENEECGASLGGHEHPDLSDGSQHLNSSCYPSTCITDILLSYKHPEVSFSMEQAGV

Row | Compound | IC50 (SIK3) [nM] | IC50 (SIK2) [nM] | IC50 (SIK1) [nM] | EC50 [1] [nM] | IL-10 FCmax median [2] | EC50 [3] [nM]
1 | COc1cc(-c2cnc3cc(OC[C@@H]4CCN(CCO)C4)ccn23)cc(OC(F)F)c1C(=O)NC1CC1 [Cpd 349, N-cyclopropyl-2-(difluoromethoxy)-4-[7-[[(3R)-1-(2-hydroxyethyl)pyrrolidin-3-yl]methoxy]imidazo[1,2-a]pyridin-3-yl]-6-methoxy-benzamide] | 0.01 to 10 | 0.01 to 10 | 10 to 100 | 100 to 1000 | +++ (>4.5) | 
2 | COc1cc(-c2cnc3cc(OCCCN4CCC(F)(CO)CC4)ccn23)cc(OC(F)F)c1C(=O)NC1CC1 [compound 360, N-cyclopropyl-2-(difluoromethoxy)-4-[7-[3-[4-fluoro-4-(hydroxymethyl)-1-piperidyl]propoxy]imidazo [1,2-a]pyridin-3-yl]-6-methoxy-benzamide] | 0.01 to 10 | 0.01 to 10 | 10 to 100 | 0.1 to 100 | ++ (>1.5-4.5) | 
3 | COc1cc(-c2cnc3cc(OCCN4C[C@@H]5C[C@H]4CO5)ccn23)cc2c1C(=O)N(CC(F)(F)F)CC2 [compound 245, 8-methoxy-6-[7-[2-[(1S,4S)-2-oxa-5-azabicyclo[2.2.1]heptan-5-yl]ethoxy]imidazo[1,2-a]pyridin-3-yl]-2-(2,2,2-trifluoroethyl)-3,4-dihydro isoquinolin-1-one] | 0.01 to 10 | 0.01 to 10 | > 500 |  | +++ (>4.5) | 100 to 1000
4 | COc1cc(-c2cnc3cc(OC[C@@H]4CCCCN4C)ccn23)cc(OC(F)F)c1C(=O)NC1CC1 [compound 139, N-cyclopropyl-2-(difluoromethoxy)-6-methoxy-4-[7-[[(2S)-1-methyl-2-piperidyl]methoxy]imidazo [1,2-a]pyridin-3-yl]benzamide] | 0.01 to 10 | 0.01 to 10 | 100 to 500 |  |  | 100 to 1000
5 | COc1cc(-c2cnc3cc(OC[C@H]4COCCO4)ccn23)cc(OC(F)F)c1C(=O)NC1CC1 [compound 50, N-cyclopropyl-2-(difluoromethoxy)-4-[7-[[(2R)-1,4-dioxan-2-yl]methoxy]imidazo[1,2-a]pyridin-3-yl]-6-methoxy-benzamide] | 0.01 to 10 | 0.01 to 10 | 10 to 100 |  |  | 100 to 1000
6 | COc1cc(-c2cnc3cc(OCc4nccn4C)ccn23)cc(OC(F)F)c1C(=O)NC1CC1 [compound 110, N-cyclopropyl-2-(difluoromethoxy)-6-methoxy-4-[7-[(1-methylimidazol-2-yl)methoxy]imidazo[1,2-a]pyridin-3-yl]benzamide] | 0.01 to 10 | 0.01 to 10 | 100 to 500 |  |  | 100 to 1000
7 | COc1cc(-c2cnc3cc(OC4CC5CCC4C5)ccn23)cc(OC(F)F)c1C(=O)NC1CC1 (stereo not drawn) [compound 58, N-cyclopropyl-2-(difluoromethoxy)-6-methoxy-4-(7-norbornan-2-yloxyimidazo[1,2-a]pyridin-3-yl)benzamide] | 0.01 to 10 | 10 to 100 | 10 to 100 |  |  | 1000 to 5000
8 | COc1cc(-c2cnc3cc(OCC4(C)CCCN4)ccn23)cc(OC(F)F)c1C(=O)NC1CC1 (stereo not drawn) [compound 168, N-cyclopropyl-2-(difluoromethoxy)-6-methoxy-4-[7-[(2-methylpyrrolidin-2-yl)methoxy]imidazo[1,2-a]pyridin-3-yl]benzamide] | 0.01 to 10 | 0.01 to 10 | 100 to 500 |  |  | 100 to 1000
9 | COCC1CN(CCOc2ccn3c(-c4cc(OC)c(C(=O)NC5CC5)c(OC(F)F)c4)cnc3c2)CCO1 (stereo not drawn) [compound 158, N-cyclopropyl-2-(difluoromethoxy)-6-methoxy-4-[7-[2-[2-(methoxymethyl)morpholin-4-yl]ethoxy]imidazo[1,2-a]pyridin-3-yl]benzamide] | 0.01 to 10 | 0.01 to 10 | 10 to 100 |  |  | 0.1 to 100
